Our source for the IC50, MIC and Activity values is ChEMBL document CHEMBL4014279, “Synthesis of novel pyrazolo[3,4-b]quinolinyl acetamide analogs, their evaluation for antimicrobial and anticancer activities, validation by molecular modeling and CoMFA analysis” (Eur J Med Chem, 2017).

The subject of experiment [1] is Candida albicans. Nature of the experiment: Antibiofilm activity against Candida albicans MTCC 4748 after 24 hrs by crystal violet staining based method. It is filed as functional. As to conditions: MTCC 4748, 24 h.
Experiment [2] concerns Candida albicans. Nature of the experiment: Antifungal activity against Candida albicans MTCC 1637 after 24 hrs by well diffusion method. Type of experiment: functional. The following applies: MTCC 1637, 24 h.
The test system of experiment [3] is Candida albicans. Put plainly: Antifungal activity against Candida albicans MTCC 227 after 24 hrs by well diffusion method. The following applies: MTCC 227, 24 h. It is filed as functional.
For experiment [4], the system named is Candida albicans. Put plainly: Antifungal activity against Candida albicans MTCC 3958 after 24 hrs by well diffusion method. It is filed as functional. The following applies: MTCC 3958, 24 h.
The subject of a further experiment is Candida parapsilosis. Put plainly: Antifungal activity against Candida parapsilosis MTCC 1744 after 24 hrs by well diffusion method. Type of experiment: functional. As to conditions: MTCC 1744, 24 h.
The next experiment deals with Pichia kudriavzevii. Nature of the experiment: Antifungal activity against Candida krusei MTCC 3020 after 24 hrs by well diffusion method. It is filed as functional. As to conditions: MTCC 3020, 24 h.
A further experiment relates to Pichia sporocuriosa. Put plainly: Antifungal activity against Issatchenkia hanoiensis MTCC 4755 after 24 hrs by well diffusion method. The following applies: MTCC 4755, 24 h. It is filed as functional.
In experiment [5] the test system is Candida albicans. Nature of the experiment: Antifungal activity against Candida albicans MTCC 3018 after 24 hrs by well diffusion method. Type of experiment: functional. As to conditions: MTCC 3018, 24 h.
The subject of experiment [6] is Candida albicans. Put plainly: Antifungal activity against Candida albicans MTCC 3017 after 24 hrs by well diffusion method. The following applies: MTCC 3017, 24 h. Type of experiment: functional.
A further experiment relates to Nakaseomyces glabratus. Put plainly: Antifungal activity against Candida glabrata MTCC 3019 after 24 hrs by well diffusion method. As to conditions: MTCC 3019, 24 h. Type of experiment: functional.
Experiment [7] relates to Candida albicans. Nature of the experiment: Antifungal activity against Candida albicans MTCC 4748 after 24 hrs by well diffusion method. It is filed as functional. As to conditions: MTCC 4748, 24 h.
Experiment [8] has as its system Candida albicans. Put plainly: Antifungal activity against Candida albicans MTCC 7315 after 24 hrs by well diffusion method. As to conditions: MTCC 7315, 24 h. Type of experiment: functional.
Experiment [9] deals with Candida albicans. Put plainly: Antifungal activity against Candida albicans MTCC 854 after 24 hrs by well diffusion method. Type of experiment: functional. As to conditions: MTCC 854, 24 h.
Experiment [10] concerns Candida albicans. Nature of the experiment: Antifungal activity against Candida albicans MTCC 183 after 24 hrs by well diffusion method. The following applies: MTCC 183, 24 h. It is filed as functional.
For a further experiment, the system named is [Candida] aaseri. Put plainly: Antifungal activity against Candida aaseri MTCC 1962 after 24 hrs by well diffusion method. It is filed as functional. The following applies: Yamadazyma aaseri, MTCC 1962, 24 h.
A further experiment relates to Raoultella planticola. Put plainly: Antibacterial activity against Klebsiella planticola MTCC 530 after 24 hrs by well diffusion method. As to conditions: MTCC 530, 24 h. Type of experiment: functional.
The subject of a further experiment is A549. Put plainly: Cytotoxicity against human A549 cells at >100 uM after 24 hrs by MTT assay. Type of experiment: functional, cell-based.
The subject of another experiment is Escherichia coli. Put plainly: Antibacterial activity against Escherichia coli MTCC 739 after 24 hrs by well diffusion method. Type of experiment: functional. The following applies: MTCC 739, 24 h.
For the next experiment, the system named is COLO 205. Nature of the experiment: Cytotoxicity against human COLO205 cells at >100 uM after 24 hrs by MTT assay. Type of experiment: functional, cell-based.
The test system of a further experiment is Micrococcus luteus. Nature of the experiment: Antibacterial activity against Micrococcus luteus MTCC 2470 after 24 hrs by well diffusion method. The following applies: MTCC 2470, 24 h. It is filed as functional.
In another experiment the test system is HepG2. Put plainly: Cytotoxicity against human HepG2 cells at >100 uM after 24 hrs by MTT assay. Type of experiment: functional, cell-based.
Experiment [11] has as its system Staphylococcus aureus. Put plainly: Antibacterial activity against Staphylococcus aureus MLS16 MTCC 2940 after 24 hrs by well diffusion method. Type of experiment: functional. The following applies: MLS16 MTCC 2940, 24 h.
For another experiment, the system named is HeLa. Nature of the experiment: Cytotoxicity against human HeLa cells at >100 uM after 24 hrs by MTT assay. Type of experiment: functional, cell-based.
Experiment [12] relates to Staphylococcus aureus. Nature of the experiment: Antibacterial activity against Staphylococcus aureus MTCC 96 after 24 hrs by well diffusion method. The following applies: MTCC 96, 24 h. Type of experiment: functional.
Another experiment has as its system Pseudomonas aeruginosa. Nature of the experiment: Antibacterial activity against Pseudomonas aeruginosa MTCC 2453 after 24 hrs by well diffusion method. It is filed as functional. As to conditions: MTCC 2453, 24 h.
A further experiment deals with Bacillus subtilis. Nature of the experiment: Antibacterial activity against Bacillus subtilis MTCC 121 after 24 hrs by well diffusion method. Type of experiment: functional. As to conditions: MTCC 121, 24 h.

Values after ≈ are worked out from the molar mass of the structure shown. Active and inactive are the calls of the source. The rule behind the calls is not given here.

In the experiment with Candida albicans [1], `Clc1ccc(COC(Cn2ccnc2)c2ccc(Cl)cc2Cl)c(Cl)c1` (stereo not given) [MICONAZOLE] yielded an IC50 of 2600 nM. For the same compound, the MIC in the experiment with Candida albicans [2], against Candida albicans [3], in the experiment on Candida albicans [4], in the experiment with Candida parapsilosis, against Pichia kudriavzevii and with Pichia sporocuriosa was 7.8 µg/mL (≈ 18.7 µM) throughout. Besides, the MIC in the experiment on Candida albicans [5], in the experiment on Candida albicans [6], in the experiment on Nakaseomyces glabratus, with Candida albicans [7], in the experiment with Candida albicans [8] and against Candida albicans [9] was 7.8 µg/mL (≈ 18.7 µM) each time. In addition, the MIC (in the experiment with Candida albicans [10]; in experiment [Candida] aaseri) was 7.8 µg/mL (≈ 18.7 µM) in each case.

Consider `O=C(Cn1nc(C(F)(F)F)c2c(-c3ccccc3)c3ccccc3nc21)N1CCOCC1`, for which the MIC with Raoultella planticola worked out at 15.6 µg/mL (≈ 35.4 µM); with Candida albicans [2], 62.5 µg/mL (≈ 142 µM); in the experiment with Escherichia coli it was 62.5 µg/mL (≈ 142 µM); in the experiment on Candida albicans [3], 62.5 µg/mL (≈ 142 µM); in the experiment with Candida albicans [4] it was 31.2 µg/mL (≈ 70.8 µM); in the experiment on Candida parapsilosis it was 31.2 µg/mL (≈ 70.8 µM). The MIC against Pichia kudriavzevii turned out to be 31.2 µg/mL (≈ 70.8 µM); with Pichia sporocuriosa, 15.6 µg/mL (≈ 35.4 µM); in the experiment with Candida albicans [5] it was 31.2 µg/mL (≈ 70.8 µM); in the experiment with Candida albicans [6] it was 31.2 µg/mL (≈ 70.8 µM); against Nakaseomyces glabratus it was 31.2 µg/mL (≈ 70.8 µM); in the experiment with Candida albicans [7], 31.2 µg/mL (≈ 70.8 µM). Also, the MIC is 15.6 µg/mL (≈ 35.4 µM) against Micrococcus luteus; 15.6 µg/mL (≈ 35.4 µM) against Candida albicans [8]; 62.5 µg/mL (≈ 142 µM) against Candida albicans [9]; 31.2 µg/mL (≈ 70.8 µM) with Staphylococcus aureus [11]; 31.2 µg/mL (≈ 70.8 µM) against Candida albicans [10]; 62.5 µg/mL (≈ 142 µM) in the experiment with Staphylococcus aureus [12]. Besides, the MIC in the experiment on Pseudomonas aeruginosa was above 125 µg/mL; in [Candida] aaseri, 62.5 µg/mL (≈ 142 µM); in the experiment with Bacillus subtilis, 31.2 µg/mL (≈ 70.8 µM). The outcome in the experiment on A549, in the experiment with COLO 205, in the experiment on HepG2 and with HeLa was inactive.
